Data: the supplement of paper PMC10307832

Columns and labels:
Assay in all cases: relative viability (nuclei count vs DMSO), 5 days (fraction); higher = more cells survive
A-427 = system: A-427
Procedure, shortened: (§1)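 Nuclei were stained with Hoechst during a one-step fixation (final 0.05% Triton X-100, 1% formaldehyde, 1 ug/ml Hoechst) carried out 5 days after dosing, then counted on 4× images. The cells, lung cancer lines in 1536-well plates, had been dosed by pin tool the day after seeding with one drug alone or a fixed anchor-drug dose plus five library-drug doses (not always all listed) in √10 steps. Relative viability is the nuclei count in treated wells divided by that in vehicle wells, and each value is the median of duplicate plates.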

A549 = system: A549
Procedure, shortened: as §1

HCC-44 = system: HCC-44
Procedure, shortened: as §1

NCI-H1623 = system: NCI-H1623
Procedure, shortened: as §1

NCI-H1650 = system: NCI-H1650
Procedure, shortened: as §1

NCI-H1993 = system: NCI-H1993
Procedure, shortened: as §1

NCI-H2023 = system: NCI-H2023
Procedure, shortened: as §1

RERF-LC-KJ = system: RERF-LC-KJ
Procedure, shortened: as §1

SW 1573 = system: SW 1573
Procedure, shortened: as §1

NCI-H1648 = system: NCI-H1648
Procedure, shortened: as §1

NCI-H1703 = system: NCI-H1703
Procedure, shortened: as §1

With `COCC1(CO)C(=O)C2CCN1CC2` (configuration not stated) [PRIMA-1MET] + N=C(N)NC(=N)NCCc1ccccc1 [Phenformin] (partner 250 µM) the relative viability (A-427; first compound 0.2 µM) was 0.221, the relative viability (A-427; first compound 0.6325 µM) was 0.294 and the relative viability (A-427; first compound 2 µM) was 0.304. For the same compound, the relative viability (A-427; first compound 6.325 µM) was 0.281, the relative viability (A-427; first compound 20 µM) was 0.133 and the relative viability (A549; first compound 0.2 µM) was 0.165. It also gave a relative viability (A549; first compound 0.6325 µM) of 0.173, a relative viability (A549; first compound 2 µM) of 0.204 and a relative viability (A549; first compound 6.325 µM) of 0.148. The relative viability (A549; first compound 20 µM) was 0.0121, the relative viability (HCC-44; first compound 0.2 µM) was 0.265 and the relative viability (HCC-44; first compound 0.6325 µM) was 0.137. It also gave a relative viability (HCC-44; first compound 2 µM) of 0.244, a relative viability (HCC-44; first compound 6.325 µM) of 0.2 and a relative viability (HCC-44; first compound 20 µM) of 0.236. The relative viability (NCI-H1623; first compound 0.2 µM) was 0.522, the relative viability (NCI-H1623; first compound 0.6325 µM) was 0.603 and the relative viability (NCI-H1623; first compound 2 µM) was 0.544. The relative viability (NCI-H1623; first compound 6.325 µM) was 0.503, the relative viability (NCI-H1623; first compound 20 µM) was 0.457 and the relative viability (NCI-H1650; first compound 0.2 µM) was 0.569. For the same compound, the relative viability (NCI-H1650; first compound 0.6325 µM) was 0.443, the relative viability (NCI-H1650; first compound 2 µM) was 0.453 and the relative viability (NCI-H1650; first compound 6.325 µM) was 0.434. It also gave a relative viability (NCI-H1650; first compound 20 µM) of 0.0427, a relative viability (NCI-H1993; first compound 0.2 µM) of 0.503 and a relative viability (NCI-H1993; first compound 0.6325 µM) of 0.526. The relative viability (NCI-H1993; first compound 2 µM) was 0.496, the relative viability (NCI-H1993; first compound 6.325 µM) was 0.544 and the relative viability (NCI-H1993; first compound 20 µM) was 0.57. It also gave a relative viability (NCI-H2023; first compound 0.2 µM) of 0.453, a relative viability (NCI-H2023; first compound 0.6325 µM) of 0.447 and a relative viability (NCI-H2023; first compound 2 µM) of 0.398. It also gave a relative viability (NCI-H2023; first compound 6.325 µM) of 0.405, a relative viability (NCI-H2023; first compound 20 µM) of 0.284 and a relative viability (RERF-LC-KJ; first compound 0.2 µM) of 0.493. For the same compound, the relative viability (RERF-LC-KJ; first compound 0.6325 µM) was 0.432, the relative viability (RERF-LC-KJ; first compound 2 µM) was 0.449 and the relative viability (RERF-LC-KJ; first compound 6.325 µM) was 0.52. It also gave a relative viability (RERF-LC-KJ; first compound 20 µM) of 0.427, a relative viability (SW 1573; first compound 0.2 µM) of 0.408 and a relative viability (SW 1573; first compound 0.6325 µM) of 0.291. It also gave a relative viability (SW 1573; first compound 2 µM) of 0.393, a relative viability (SW 1573; first compound 6.325 µM) of 0.22 and a relative viability (SW 1573; first compound 20 µM) of 0.0256.

Compound `COCC1(CO)C(=O)C2CCN1CC2` (configuration not stated) [PRIMA-1MET] + NC(=O)Nc1cc(-c2cccc(F)c2)sc1C(=O)N[C@H]1CCCNC1 [AZD7762] (partner 0.2 µM) has a relative viability (A-427; first compound 0.2 µM) of 0.741, a relative viability (A-427; first compound 0.6325 µM) of 0.795 and a relative viability (A-427; first compound 2 µM) of 0.756. For the same compound, the relative viability (A-427; first compound 6.325 µM) was 0.711, the relative viability (A-427; first compound 20 µM) was 0.557 and the relative viability (HCC-44; first compound 0.2 µM) was 1.02. It also gave a relative viability (HCC-44; first compound 0.6325 µM) of 1.01, a relative viability (HCC-44; first compound 2 µM) of 1.18 and a relative viability (HCC-44; first compound 6.325 µM) of 1.03. The relative viability (HCC-44; first compound 20 µM) was 1.01, the relative viability (NCI-H1648; first compound 0.2 µM) was 0.729 and the relative viability (NCI-H1648; first compound 2 µM) was 0.655. The relative viability (NCI-H1648; first compound 20 µM) was 0.663, the relative viability (NCI-H1703; first compound 0.6325 µM) was 0.158 and the relative viability (NCI-H1703; first compound 6.325 µM) was 0.121. The relative viability (NCI-H1703; first compound 20 µM) was 0.0239, the relative viability (NCI-H1993; first compound 0.2 µM) was 0.476 and the relative viability (NCI-H1993; first compound 2 µM) was 0.726. It also gave a relative viability (NCI-H1993; first compound 6.325 µM) of 0.783, a relative viability (NCI-H1993; first compound 20 µM) of 0.716 and a relative viability (RERF-LC-KJ; first compound 0.2 µM) of 1.11. It also gave a relative viability (RERF-LC-KJ; first compound 0.6325 µM) of 0.875, a relative viability (RERF-LC-KJ; first compound 2 µM) of 0.928 and a relative viability (RERF-LC-KJ; first compound 6.325 µM) of 1.04. For the same compound, the relative viability (RERF-LC-KJ; first compound 20 µM) was 0.978.

`COCC1(CO)C(=O)C2CCN1CC2` (configuration not stated) [PRIMA-1MET] + Nc1nc2[nH]cc(CCc3ccc(C(=O)N[C@@H](CCC(=O)O)C(=O)O)cc3)c2c(=O)[nH]1 [Pemetrexed] (partner 0.2 µM) gave a relative viability (A-427; first compound 0.2 µM) of 1.11, a relative viability (A-427; first compound 0.6325 µM) of 0.92 and a relative viability (A-427; first compound 2 µM) of 0.953. For the same compound, the relative viability (A-427; first compound 6.325 µM) was 1.06, the relative viability (A-427; first compound 20 µM) was 0.962 and the relative viability (HCC-44; first compound 0.2 µM) was 0.748. It also gave a relative viability (HCC-44; first compound 0.6325 µM) of 0.641, a relative viability (HCC-44; first compound 2 µM) of 0.681 and a relative viability (HCC-44; first compound 6.325 µM) of 0.676. For the same compound, the relative viability (HCC-44; first compound 20 µM) was 0.607, the relative viability (NCI-H1648; first compound 0.2 µM) was 0.72 and the relative viability (NCI-H1648; first compound 2 µM) was 0.776. The relative viability (NCI-H1648; first compound 20 µM) was 0.637, the relative viability (NCI-H1650; first compound 0.2 µM) was 0.407 and the relative viability (NCI-H1650; first compound 0.6325 µM) was 0.306. For the same compound, the relative viability (NCI-H1650; first compound 2 µM) was 0.399, the relative viability (NCI-H1650; first compound 6.325 µM) was 0.374 and the relative viability (NCI-H1650; first compound 20 µM) was 0.304. The relative viability (NCI-H1993; first compound 0.2 µM) was 0.592, the relative viability (NCI-H1993; first compound 2 µM) was 0.592 and the relative viability (NCI-H1993; first compound 6.325 µM) was 0.534. For the same compound, the relative viability (NCI-H1993; first compound 20 µM) was 0.557, the relative viability (NCI-H2023; first compound 0.2 µM) was 0.224 and the relative viability (NCI-H2023; first compound 0.6325 µM) was 0.23. The relative viability (NCI-H2023; first compound 2 µM) was 0.28, the relative viability (NCI-H2023; first compound 6.325 µM) was 0.237 and the relative viability (NCI-H2023; first compound 20 µM) was 0.147. It also gave a relative viability (RERF-LC-KJ; first compound 0.2 µM) of 0.49, a relative viability (RERF-LC-KJ; first compound 0.6325 µM) of 0.484 and a relative viability (RERF-LC-KJ; first compound 2 µM) of 0.472. For the same compound, the relative viability (RERF-LC-KJ; first compound 6.325 µM) was 0.495, the relative viability (RERF-LC-KJ; first compound 20 µM) was 0.472 and the relative viability (SW 1573; first compound 0.2 µM) was 0.882. For the same compound, the relative viability (SW 1573; first compound 0.6325 µM) was 0.89, the relative viability (SW 1573; first compound 2 µM) was 0.752 and the relative viability (SW 1573; first compound 6.325 µM) was 0.0377. The relative viability (SW 1573; first compound 20 µM) was 0.0278.
